{"source": "PubChem BioAssay (NCI)", "assay_in_all_cases": "NCI tumour cell line growth inhibition, 384-well format", "key": {"MOLT-4 leukemia": {"system": "MOLT-4 leukemia"}, "SK-MEL-28 melanoma": {"system": "SK-MEL-28 melanoma"}, "UACC-62 melanoma": {"system": "UACC-62 melanoma"}, "HOP-92 NSCLC": {"system": "HOP-92 NSCLC"}, "SNB-19 CNS": {"system": "SNB-19 CNS"}, "TK-10 renal": {"system": "TK-10 renal"}, "NCI-H23 lung": {"system": "NCI-H23 lung"}, "MDA-MB-231 breast": {"system": "MDA-MB-231 breast"}, "BT-549 breast": {"system": "BT-549 breast"}, "CCRF-CEM leukemia": {"system": "CCRF-CEM leukemia"}, "HCC-2998 colon": {"system": "HCC-2998 colon"}, "U251 glioblastoma": {"system": "U251 glioblastoma"}, "OVCAR-5 ovarian": {"system": "OVCAR-5 ovarian"}, "SK-MEL-2 melanoma": {"system": "SK-MEL-2 melanoma"}, "PC-3 prostate": {"system": "PC-3 prostate"}, "MALME-3M melanoma": {"system": "MALME-3M melanoma"}, "M14 melanoma": {"system": "M14 melanoma"}, "MDA-MB-468 breast": {"system": "MDA-MB-468 breast"}, "786-0 renal": {"system": "786-0 renal"}, "LOX IMVI melanoma": {"system": "LOX IMVI melanoma"}, "K-562 leukemia": {"system": "K-562 leukemia"}, "NCI-H226 lung": {"system": "NCI-H226 lung"}, "RPMI-8226 leukemia": {"system": "RPMI-8226 leukemia"}, "OVCAR-4 ovarian": {"system": "OVCAR-4 ovarian"}, "HL-60(TB) leukemia": {"system": "HL-60(TB) leukemia"}, "SR leukemia": {"system": "SR leukemia"}, "COLO 205 colon": {"system": "COLO 205 colon"}, "HT29 colon": {"system": "HT29 colon"}, "UACC-257 melanoma": {"system": "UACC-257 melanoma"}, "MCF7 breast": {"system": "MCF7 breast"}, "UO-31 renal": {"system": "UO-31 renal"}, "T-47D breast": {"system": "T-47D breast"}, "A498 renal": {"system": "A498 renal"}, "HCT-116 colon": {"system": "HCT-116 colon"}, "SW-620 colon": {"system": "SW-620 colon"}, "SN12C renal": {"system": "SN12C renal"}, "HOP-62 NSCLC": {"system": "HOP-62 NSCLC"}, "DU-145 prostate": {"system": "DU-145 prostate"}, "EKVX NSCLC": {"system": "EKVX NSCLC"}, "A549 NSCLC": {"system": "A549 NSCLC"}, "IGROV1 ovarian": {"system": "IGROV1 ovarian"}, "ACHN renal": {"system": "ACHN renal"}, "NCI-H460 NSCLC": {"system": "NCI-H460 NSCLC"}, "HS 578T breast": {"system": "HS 578T breast"}, "SK-MEL-5 melanoma": {"system": "SK-MEL-5 melanoma"}, "SF-268 CNS": {"system": "SF-268 CNS"}, "SK-OV-3 ovarian": {"system": "SK-OV-3 ovarian"}}, "note": "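GI50: concentration for 50% inhibition of growth. TGI denotes the concentration required for complete inhibition of growth.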", "data": [{"smiles": "C[C@@H](c1ccc2nccn2c1)n1nnc2ncc(-c3cnn(C)c3)nc21", "values": [{"measurement": "GI50", "setting": "MOLT-4 leukemia", "result": 51.5, "unit": "µM"}, {"measurement": "TGI", "setting": "MOLT-4 leukemia", "result": "> 100", "unit": "µM"}, {"measurement": "GI50", "setting": "SK-MEL-28 melanoma", "result": "> 100", "unit": "µM"}, {"measurement": "TGI", "setting": "SK-MEL-28 melanoma", "result": "> 100", "unit": "µM"}, {"measurement": "GI50", "setting": "UACC-62 melanoma", "result": "> 100", "unit": "µM"}, {"measurement": "TGI", "setting": "UACC-62 melanoma", "result": "> 100", "unit": "µM"}, {"measurement": "GI50", "setting": "HOP-92 NSCLC", "result": "> 100", "unit": "µM"}, {"measurement": "TGI", "setting": "HOP-92 NSCLC", "result": "> 100", "unit": "µM"}, {"measurement": "GI50", "setting": "SNB-19 CNS", "result": "> 100", "unit": "µM"}, {"measurement": "TGI", "setting": "SNB-19 CNS", "result": "> 100", "unit": "µM"}, {"measurement": "GI50", "setting": "TK-10 renal", "result": "> 100", "unit": "µM"}, {"measurement": "TGI", "setting": "TK-10 renal", "result": "> 100", "unit": "µM"}, {"measurement": "GI50", "setting": "NCI-H23 lung", "result": 20.6, "unit": "µM"}, {"measurement": "TGI", "setting": "NCI-H23 lung", "result": "> 100", "unit": "µM"}, {"measurement": "GI50", "setting": "MDA-MB-231 breast", "result": "> 100", "unit": "µM"}, {"measurement": "TGI", "setting": "MDA-MB-231 breast", "result": "> 100", "unit": "µM"}, {"measurement": "GI50", "setting": "BT-549 breast", "result": "> 100", "unit": "µM"}, {"measurement": "TGI", "setting": "BT-549 breast", "result": "> 100", "unit": "µM"}, {"measurement": "GI50", "setting": "CCRF-CEM leukemia", "result": "> 71.6", "unit": "µM"}, {"measurement": "TGI", "setting": "CCRF-CEM leukemia", "result": "> 100", "unit": "µM"}, {"measurement": "GI50", "setting": "HCC-2998 colon", "result": "> 100", "unit": "µM"}, {"measurement": "TGI", "setting": "HCC-2998 colon", "result": "> 100", "unit": "µM"}, {"measurement": "GI50", "setting": "U251 glioblastoma", "result": "> 100", "unit": "µM"}, {"measurement": "TGI", "setting": "U251 glioblastoma", "result": "> 100", "unit": "µM"}, {"measurement": "GI50", "setting": "OVCAR-5 ovarian", "result": "> 100", "unit": "µM"}, {"measurement": "TGI", "setting": "OVCAR-5 ovarian", "result": "> 100", "unit": "µM"}, {"measurement": "GI50", "setting": "SK-MEL-2 melanoma", "result": "> 100", "unit": "µM"}, {"measurement": "TGI", "setting": "SK-MEL-2 melanoma", "result": "> 100", "unit": "µM"}, {"measurement": "GI50", "setting": "PC-3 prostate", "result": "> 100", "unit": "µM"}, {"measurement": "TGI", "setting": "PC-3 prostate", "result": "> 100", "unit": "µM"}, {"measurement": "GI50", "setting": "MALME-3M melanoma", "result": "> 100", "unit": "µM"}, {"measurement": "TGI", "setting": "MALME-3M melanoma", "result": "> 100", "unit": "µM"}, {"measurement": "GI50", "setting": "M14 melanoma", "result": "> 100", "unit": "µM"}, {"measurement": "TGI", "setting": "M14 melanoma", "result": "> 100", "unit": "µM"}, {"measurement": "GI50", "setting": "MDA-MB-468 breast", "result": 22, "unit": "µM"}, {"measurement": "TGI", "setting": "MDA-MB-468 breast", "result": "> 100", "unit": "µM"}, {"measurement": "GI50", "setting": "786-0 renal", "result": "> 100", "unit": "µM"}, {"measurement": "TGI", "setting": "786-0 renal", "result": "> 100", "unit": "µM"}, {"measurement": "GI50", "setting": "LOX IMVI melanoma", "result": "> 65.9", "unit": "µM"}, {"measurement": "TGI", "setting": "LOX IMVI melanoma", "result": "> 100", "unit": "µM"}, {"measurement": "GI50", "setting": "K-562 leukemia", "result": 44.8, "unit": "µM"}, {"measurement": "TGI", "setting": "K-562 leukemia", "result": "> 100", "unit": "µM"}, {"measurement": "GI50", "setting": "NCI-H226 lung", "result": "> 100", "unit": "µM"}, {"measurement": "TGI", "setting": "NCI-H226 lung", "result": "> 100", "unit": "µM"}, {"measurement": "GI50", "setting": "RPMI-8226 leukemia", "result": "> 68.8", "unit": "µM"}, {"measurement": "TGI", "setting": "RPMI-8226 leukemia", "result": "> 100", "unit": "µM"}, {"measurement": "GI50", "setting": "OVCAR-4 ovarian", "result": "> 94.4", "unit": "µM"}, {"measurement": "TGI", "setting": "OVCAR-4 ovarian", "result": "> 100", "unit": "µM"}, {"measurement": "GI50", "setting": "HL-60(TB) leukemia", "result": "> 92.2", "unit": "µM"}, {"measurement": "TGI", "setting": "HL-60(TB) leukemia", "result": "> 100", "unit": "µM"}, {"measurement": "GI50", "setting": "SR leukemia", "result": 43.3, "unit": "µM"}, {"measurement": "TGI", "setting": "SR leukemia", "result": "> 100", "unit": "µM"}, {"measurement": "GI50", "setting": "COLO 205 colon", "result": "> 100", "unit": "µM"}, {"measurement": "TGI", "setting": "COLO 205 colon", "result": "> 100", "unit": "µM"}, {"measurement": "GI50", "setting": "HT29 colon", "result": "> 100", "unit": "µM"}, {"measurement": "TGI", "setting": "HT29 colon", "result": "> 100", "unit": "µM"}, {"measurement": "GI50", "setting": "UACC-257 melanoma", "result": "> 100", "unit": "µM"}, {"measurement": "TGI", "setting": "UACC-257 melanoma", "result": "> 100", "unit": "µM"}, {"measurement": "GI50", "setting": "MCF7 breast", "result": "> 100", "unit": "µM"}, {"measurement": "TGI", "setting": "MCF7 breast", "result": "> 100", "unit": "µM"}, {"measurement": "GI50", "setting": "UO-31 renal", "result": "> 100", "unit": "µM"}, {"measurement": "TGI", "setting": "UO-31 renal", "result": "> 100", "unit": "µM"}, {"measurement": "GI50", "setting": "T-47D breast", "result": "> 61.2", "unit": "µM"}, {"measurement": "TGI", "setting": "T-47D breast", "result": "> 100", "unit": "µM"}, {"measurement": "GI50", "setting": "A498 renal", "result": "> 100", "unit": "µM"}, {"measurement": "TGI", "setting": "A498 renal", "result": "> 100", "unit": "µM"}, {"measurement": "GI50", "setting": "HCT-116 colon", "result": "> 100", "unit": "µM"}, {"measurement": "TGI", "setting": "HCT-116 colon", "result": "> 100", "unit": "µM"}, {"measurement": "GI50", "setting": "SW-620 colon", "result": "> 100", "unit": "µM"}, {"measurement": "TGI", "setting": "SW-620 colon", "result": "> 100", "unit": "µM"}, {"measurement": "GI50", "setting": "SN12C renal", "result": "> 63", "unit": "µM"}, {"measurement": "TGI", "setting": "SN12C renal", "result": "> 100", "unit": "µM"}, {"measurement": "GI50", "setting": "HOP-62 NSCLC", "result": "> 92.4", "unit": "µM"}, {"measurement": "TGI", "setting": "HOP-62 NSCLC", "result": "> 100", "unit": "µM"}, {"measurement": "GI50", "setting": "DU-145 prostate", "result": "> 100", "unit": "µM"}, {"measurement": "TGI", "setting": "DU-145 prostate", "result": "> 100", "unit": "µM"}, {"measurement": "GI50", "setting": "EKVX NSCLC", "result": "> 100", "unit": "µM"}, {"measurement": "TGI", "setting": "EKVX NSCLC", "result": "> 100", "unit": "µM"}, {"measurement": "GI50", "setting": "A549 NSCLC", "result": "> 100", "unit": "µM"}, {"measurement": "TGI", "setting": "A549 NSCLC", "result": "> 100", "unit": "µM"}, {"measurement": "GI50", "setting": "IGROV1 ovarian", "result": "> 100", "unit": "µM"}, {"measurement": "TGI", "setting": "IGROV1 ovarian", "result": "> 100", "unit": "µM"}, {"measurement": "GI50", "setting": "ACHN renal", "result": "> 100", "unit": "µM"}, {"measurement": "TGI", "setting": "ACHN renal", "result": "> 100", "unit": "µM"}, {"measurement": "GI50", "setting": "NCI-H460 NSCLC", "result": "> 100", "unit": "µM"}, {"measurement": "TGI", "setting": "NCI-H460 NSCLC", "result": "> 100", "unit": "µM"}, {"measurement": "GI50", "setting": "HS 578T breast", "result": "> 100", "unit": "µM"}, {"measurement": "TGI", "setting": "HS 578T breast", "result": "> 100", "unit": "µM"}, {"measurement": "GI50", "setting": "SK-MEL-5 melanoma", "result": "> 92.7", "unit": "µM"}, {"measurement": "TGI", "setting": "SK-MEL-5 melanoma", "result": "> 100", "unit": "µM"}, {"measurement": "GI50", "setting": "SF-268 CNS", "result": "> 100", "unit": "µM"}, {"measurement": "TGI", "setting": "SF-268 CNS", "result": "> 100", "unit": "µM"}, {"measurement": "GI50", "setting": "SK-OV-3 ovarian", "result": "> 100", "unit": "µM"}, {"measurement": "TGI", "setting": "SK-OV-3 ovarian", "result": "> 100", "unit": "µM"}]}]}
